Measured values published in patent US6437143B1, “Thiazolidone-2 derivatives, 4-diketone substituted, method for obtaining them and pharmaceutical compositions containing same” (Merck Patent Gesellschaft mit beschrankter Haftung, priority 1996, dated 2002).
Where two headings read alike, the source gives them in different places.

Key:
[1] = system: non-insulin-dependent diabetes induced in rats by Streptozotocin; assay: Antidiabetic activity by the oral route in the nOSTZ rat model of non-insulin-dependent diabetes; assay type: in vivo; conditions: 96 h, nOSTZ diabetic rats; for change in vivo at 20 mg/kg: 20 mg/kg/4d; for change in vivo at 200 mg/kg: 200 mg/kg/4d
Procedure: To determine an antidiabetic activity by the oral route on an experimental model of non-insulin-dependent diabetes induced in rats by Streptozotocin.
The non-insulin-dependent diabetes model is obtained in rats by a neonatal injection (on the day of birth) of Streptozotocin.
The diabetic rats used are 8 weeks old.
The animals are kept, from the day of their birth to the day of the experiment, in an animal house at a regulated temperature of 21 to 22° C., and subjected to a fixed cycle of light (from 7.00 h to 19.00 h) and of darkness (from 19.00 h to 7.00 h). Their diet consisted of a maintenance diet; water and food were provided “ad libitum”, with the exception of the 2 hours of fasting preceding the tests where food is withdrawn.
On the day of the experiment, the rats are treated orally with the test product, and then 90′ later, are anaesthetized with Nembutal. 2 hours after the administration of the product, a 500-μl blood sample is collected from the tail.
The blood is collected over Heparin. All the tubes are placed on ice at the time the samples are collected. These are then centrifuged for 10 minutes at 3000 revolutions/minute to separate the organized elements as rapidly as possible.
The plasma obtained is distributed into 2 aliquots: one for the assay of glycaemia and lactatamia; these assays are carried out immediately the other for the assay of insulinaemia—is stored in the freezer at −20° C. up to the day of the assay They are determined by the glucose oxydase and lactate oxydase technique (Eppendorf Ebio 6666) The plasma insulin is assayed by a radio-immunological method

Structure (SMILES)	change in vivo at 20 mg/kg ([1]; read-out: % Glycaemia)	change in vivo at 20 mg/kg ([1]; read-out: % Insulinaemia)	change in vivo at 200 mg/kg ([1]; read-out: % Glycaemia)	change in vivo at 200 mg/kg ([1]; read-out: % Insulinaemia)	melting point
O=C1NC(=O)C(CCOc2ccc(F)cc2)S1 (centres unmarked) [Compound 2, 5-[2-(4-fluorophenoxy)ethyl]-2,4-thiazolidinedione]	-2%	-1%	-19%	-27%	94 to 96 °C
CC(COc1ccccc1)C1SC(=O)NC1=O (centres unmarked) [Compound 19, 5-[1-methyl-2-phenoxyethyl]-2,4-thiazolidinedione]	-6%	2%	-20%	-10%	106 to 108 °C
O=C1NC(=O)C(CCOc2ccc3ccccc3c2)S1 (centres unmarked) [Compound 15]	-14%	-9%	-22%	-12%	133 °C
Cc1ccc(C)c(OCCC2SC(=O)NC2=O)c1 (centres unmarked) (hydrate or solvate) [Compound 18]	–	–	–	–	134 to 136 °C
O=C1NC(=O)C(C(COc2ccc(F)cc2)c2ccccc2)S1 (centres unmarked) [Compound 12]	-6%	-35%	-6%	-56%	121 °C
N#Cc1ccc(OCCC2SC(=O)NC2=O)cc1 (centres unmarked) [Compound 6, 5-[2-(4-cyanophenoxy)ethyl]-2,4-thiazolidinedione]	-20%	0%	-26%	-49%	–
O=C1NC(=O)C(C(O)COc2ccc(F)cc2)S1 (centres unmarked) [Compound 16, 5-{[1-hydroxy-2-(4-fluorophenoxy)]ethyl}-2,4-thiazolidinedione]	-6%	-12%	-22%	0%	131 to 133 °C
O=C1NC(=O)C(CCOc2cccc3ccccc23)S1 (centres unmarked) [Compound 11]	-12%	-31%	-21%	-23%	185 to 187 °C
O=C1NC(=O)C(CC2COc3ccccc3O2)S1 (centres unmarked) [Compound 7]	1%	6%	-10%	-47%	145 °C
O=C1NC(=O)C(CCCCCCOc2ccc(Cl)cc2)S1 (centres unmarked) [Compound 9]	10%	-15%	-16%	-30%	68 to 70 °C
O=C1NC(=O)C(CCOc2ccccc2)S1 (centres unmarked) [Compound 1, 5-(2-phenoxyethyl)-2,4-thiazolidinedione]	-15%	–	-26%	–	–
COCCc1ccc(OCCC2SC(=O)NC2=O)cc1 (centres unmarked) [Compound 20]	-10%	–	-14%	–	101 to 103 °C
O=C1NC(=O)C(CCOc2ccc(Br)cc2)S1 (centres unmarked) [Compound 5]	-10%	-9%	-23%	-62%	104 to 106 °C
O=C1NC(=O)C(CCCOc2ccc(F)cc2)S1 (centres unmarked) [Compound 3, 5-[3-(4-fluorophenoxy)propyl]-2,4-thiazolidinedione]	-17%	1%	-17%	-37%	121 to 123 °C
O=C1NC(=O)C(CCOc2ccc(Cl)cc2)S1 (centres unmarked) [Compound 4]	-3%	-35%	-17%	-33%	116 to 118 °C
O=C1NC(=O)C(CCOc2cccc(F)c2)S1 (centres unmarked) [Compound 13]	-14%	–	-2%	–	87 °C
Cc1ccc(OCCC2SC(=O)NC2=O)cc1 (centres unmarked) [Compound 8]	-3%	-30%	-9%	-26%	119 to 121 °C
O=C1NC(=O)C(CCOc2ccccc2F)S1 (centres unmarked) [Compound 14]	-4%	-23%	-7%	-51%	138 °C
O=C1NC(=O)C(CC(O)COc2ccc(F)cc2)S1 (centres unmarked) [Compound 17, 5-{[2-hydroxy-3-(4-fluorophenoxy)]propyl}-2,4-thiazolidinedione]	-20%	4%	-7%	-5%	96 to 98 °C
O=C1NC(=O)C(CCOc2ccc(C(=O)O)cc2)S1 (centres unmarked) [Compound 21]	-1%	–	-9%	–	234 to 236 °C
Cc1ccc(C)c(OCCC2SC(=O)NC2=O)c1 (centres unmarked) [Compound 18]	-8%	-4%	-9%	-17%	–
O=C1NC(=O)C(CCCCCOc2ccc(F)cc2)S1 (centres unmarked) [Compound 10]	-1%	-12%	-9%	-48%	98 to 100 °C
